Reference: ChEMBL document CHEMBL1139913, “Synthesis, biological evaluations, and tubulin binding poses of C-2alpha sulfur linked taxol analogues” (Bioorg Med Chem Lett, 2007)

Tests used:
[1] = Cytotoxicity against A2780/AD cells by MTT assay; assay type: functional, cell-based; conditions: Homo sapiens, A2780 ADR
A2780 = experiment: Cytotoxicity against A2780 cells by MTT assay; assay type: functional, cell-based; conditions: Homo sapiens

Structure (SMILES)	IC50 [1]	IC50 (A2780)
CC(=O)O[C@H]1C(=O)[C@@]2(C)[C@H]([C@H](SC(=O)c3ccccc3)[C@]3(O)C[C@H](OC(=O)[C@H](O)[C@@H](NC(=O)c4ccccc4)c4ccccc4)C(C)=C1C3(C)C)[C@]1(OC(C)=O)CO[C@@H]1C[C@@H]2O	27 µM	11.7 µM
CC(=O)O[C@H]1C(=O)[C@@]2(C)[C@H]([C@H](SCc3ccccc3)[C@]3(O)C[C@H](OC(=O)[C@H](O)[C@@H](NC(=O)c4ccccc4)c4ccccc4)C(C)=C1C3(C)C)[C@]1(OC(C)=O)CO[C@@H]1C[C@@H]2O	9.4 µM	9.9 µM
CC(=O)O[C@H]1C(=O)[C@@]2(C)[C@H]([C@H](SC(=O)c3ccccc3)[C@]3(O)C[C@H](OC(=O)[C@H](O)[C@@H](NC(=O)OC(C)(C)C)c4ccccc4)C(C)=C1C3(C)C)[C@]1(OC(C)=O)CO[C@@H]1C[C@@H]2O	6.96 µM	2.4 µM
CC(=O)O[C@H]1C(=O)[C@@]2(C)[C@H]([C@H](SCc3ccccc3)[C@]3(O)C[C@H](OC(=O)[C@H](O)[C@@H](NC(=O)OC(C)(C)C)c4ccccc4)C(C)=C1C3(C)C)[C@]1(OC(C)=O)CO[C@@H]1C[C@@H]2O	8.3 µM	3.5 µM
CC(=O)O[C@H]1C(=O)[C@@]2(C)[C@H]([C@H](OC(=O)c3ccccc3)[C@]3(O)C[C@H](OC(=O)[C@H](O)[C@@H](NC(=O)c4ccccc4)c4ccccc4)C(C)=C1C3(C)C)[C@]1(OC(C)=O)CO[C@@H]1C[C@@H]2O [PACLITAXEL]	0.92 µM	0.0016 µM
